Numbered stars: 1 amine (or outer) side, 2 acyl side, 3 side chain; on linkers, the order of the positions; unused ones are H or OH. Bridge positions count the residues as written; N and C are the ends. Square brackets hold non-standard residues; d marks the D form. Side chains are listed from the residue outwards. Peptide text beside a SMILES is read from it. * marks the point of attachment. C18 diacid = O=C(O)CCCCCCCCCCCCCCCCC(=O)*; γGlu = O=C(O)[C@H](CCC(=O)[*:2])N[*:1]; AEEA = NCCOCCOCC(=O)O; Aib = CC(C)(N)C(=O)O
Key:
[1] = biological target: T1, human calcitonin receptor (hCTR) (Homo sapiens, UniProt P30988); experiment: cAMP production in 1321N1 cells with stable recombinant expression of human calcitonin receptor (hCTR); format: cell-based; conditions: cAMP, 1321N1 cells, assay buffer with 0.1% BSA; read-out: EC50 (pM) hCTR
T1 construct: expressed in transfected cells
T1 sequence (P30988 25-474): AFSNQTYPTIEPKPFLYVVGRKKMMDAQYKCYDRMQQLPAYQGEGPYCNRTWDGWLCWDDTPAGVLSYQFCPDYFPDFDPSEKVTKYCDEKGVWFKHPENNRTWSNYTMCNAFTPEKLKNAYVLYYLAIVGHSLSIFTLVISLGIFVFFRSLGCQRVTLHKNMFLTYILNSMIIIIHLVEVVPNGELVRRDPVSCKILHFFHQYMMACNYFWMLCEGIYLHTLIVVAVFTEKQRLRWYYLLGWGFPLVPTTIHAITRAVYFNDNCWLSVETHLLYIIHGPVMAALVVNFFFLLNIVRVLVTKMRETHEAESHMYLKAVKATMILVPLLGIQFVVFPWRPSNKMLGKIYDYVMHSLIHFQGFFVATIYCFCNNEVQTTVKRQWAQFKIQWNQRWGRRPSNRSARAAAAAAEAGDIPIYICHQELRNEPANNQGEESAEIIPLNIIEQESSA
Outline: (§1)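 Receptor-expressing cells (human receptors in 1321N1, rat receptors in HEK) incubated 30 min at room temperature with peptide in HBSS/HEPES pH 7.4, 0.1% BSA, 0.5 mM IBMX. cAMP read by HTRF; EC50 from 4-parameter fit as % of maximal amylin or calcitonin response.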

[2] = biological target: T2, human amylin receptor (calcitonin receptor co-expressed with receptor activity modifying protein, RAMP3) (hAMYR3) (Homo sapiens, UniProt O60896+P30988); experiment: cAMP production in 1321N1 cells with stable recombinant expression of human amylin receptor (hAMYR3); format: cell-based; conditions: for Ratio (selectivity hAMYR vs hCTR, ratio of EC50 values at the two receptors): EC50 hCTR / EC50 hAMYR3; for EC50: cAMP, 1321N1 cells, assay buffer with 0.1% BSA, read-out: EC50 (pM) hAMYR3
T2 construct: expressed in transfected cells
T2 sequence (P30988 25-474): T1 sequence (P30988 25-474)
T2 sequence (O60896 24-148 partner): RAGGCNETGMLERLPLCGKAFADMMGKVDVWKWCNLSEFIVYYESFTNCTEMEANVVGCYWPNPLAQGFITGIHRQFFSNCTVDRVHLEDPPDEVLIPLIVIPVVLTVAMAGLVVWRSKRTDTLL
Outline: as §1

SMILES | EC50 [1] | Ratio (selectivity hAMYR vs hCTR, ratio of EC50 values at the two receptors) [2] | EC50 [2]
CC[C@H](C)[C@H](NC(=O)[C@@H]1CCCN1C(=O)CNC(=O)[C@H](Cc1ccccc1)NC(=O)[C@H](CC(N)=O)NC(=O)C(C)(C)NC(=O)[C@H](CO)NC(=O)[C@H](CO)NC(=O)[C@H](Cc1c[nH]cn1)NC(=O)[C@H](CCC(=O)O)NC(=O)[C@H](CC(C)C)NC(=O)[C@H](Cc1ccccc1)NC(=O)[C@H](CC(N)=O)NC(=O)[C@H](C)NC(=O)[C@H](CC(C)C)NC(=O)[C@H](CCCNC(=N)N)NC(=O)[C@H](CCC(N)=O)NC(=O)[C@@H](NC(=O)[C@H](C)NC(=O)[C@@H]1CSSC[C@H](NC(=O)[C@H](CCCCN)NC(=O)[C@@H](N)CCCCNC(=O)CC[C@H](NC(=O)CCCCCCCCCCCCCCCCC(=O)O)C(=O)O)C(=O)N[C@@H](CC(N)=O)C(=O)N[C@@H]([C@@H](C)O)C(=O)N[C@@H](C)C(=O)N[C@@H]([C@@H](C)O)C(=O)N1)[C@@H](C)O)C(=O)N[C@@H](CC(C)C)C(=O)N1CCC[C@H]1C(=O)N1CCC[C@H]1C(=O)N[C@H](C(=O)N[C@@H](CC(N)=O)C(=O)N[C@H](C(=O)NCC(=O)N[C@@H](CO)C(=O)N[C@@H](CC(N)=O)C(=O)N[C@H](C(=O)N[C@@H](Cc1ccc(O)cc1)C(N)=O)[C@@H](C)O)C(C)C)[C@@H](C)O [Peptide 39, K(γE-C18diacid)K[CNTATC]ATQRLANFLEHSS(Aib)NFGPILPPTNVGSNTY-amide] (H-K([γGlu-C18 diacid])KCNTATCATQRLANFLEHSS[Aib]NFGPILPPTNVGSNTY-NH2; disulfide 3-8) | 10400 pM | 10 | 1050 pM
CC[C@H](C)[C@H](NC(=O)[C@@H]1CCCN1C(=O)CNC(=O)[C@H](Cc1ccccc1)NC(=O)[C@H](CC(N)=O)NC(=O)C(C)(C)NC(=O)[C@H](CO)NC(=O)[C@H](CO)NC(=O)[C@H](Cc1c[nH]cn1)NC(=O)[C@@H](NC(=O)[C@H](CC(C)C)NC(=O)[C@H](Cc1ccccc1)NC(=O)[C@H](CC(N)=O)NC(=O)[C@H](C)NC(=O)[C@H](CC(C)C)NC(=O)[C@H](CCCNC(=N)N)NC(=O)[C@H](CCC(N)=O)NC(=O)[C@@H](NC(=O)[C@H](C)NC(=O)[C@@H]1CSSC[C@H](NC(=O)[C@H](CCCCN)NC(=O)[C@@H](N)CCCCNC(=O)CC[C@H](NC(=O)CCCCCCCCCCCCCCCCC(=O)O)C(=O)O)C(=O)N[C@@H](CC(N)=O)C(=O)N[C@@H]([C@@H](C)O)C(=O)N[C@@H](C)C(=O)N[C@@H]([C@@H](C)O)C(=O)N1)[C@@H](C)O)C(C)C)C(=O)N[C@@H](CC(C)C)C(=O)N1CCC[C@H]1C(=O)N1CCC[C@H]1C(=O)N[C@H](C(=O)N[C@@H](CC(N)=O)C(=O)N[C@H](C(=O)NCC(=O)N[C@@H](CO)C(=O)N[C@@H](CCC(=O)O)C(=O)N[C@H](C(=O)N[C@@H](Cc1ccc(O)cc1)C(N)=O)[C@@H](C)O)C(C)C)[C@@H](C)O [Peptide 42, K(γE-C18diacid)K[CNTATC]ATQRLANFLVHSS(Aib)NFGPILPPTNVGSETY-amide] (H-K([γGlu-C18 diacid])KCNTATCATQRLANFLVHSS[Aib]NFGPILPPTNVGSETY-NH2; disulfide 3-8) | 2950 pM | 6 | 470 pM
CC[C@H](C)[C@H](NC(=O)[C@@H]1CCCN1C(=O)CNC(=O)[C@H](Cc1ccccc1)NC(=O)[C@H](CC(N)=O)NC(=O)C(C)(C)NC(=O)[C@H](CO)NC(=O)[C@H](CO)NC(=O)[C@H](Cc1c[nH]cn1)NC(=O)[C@H](CCCNC(=N)N)NC(=O)[C@H](CC(C)C)NC(=O)[C@H](Cc1ccccc1)NC(=O)[C@H](CC(N)=O)NC(=O)[C@H](C)NC(=O)[C@H](CC(C)C)NC(=O)[C@H](CCCNC(=N)N)NC(=O)[C@H](CCC(N)=O)NC(=O)[C@@H](NC(=O)[C@H](C)NC(=O)[C@@H]1CSSC[C@H](NC(=O)[C@@H](N)CCCCNC(=O)COCCOCCNC(=O)COCCOCCNC(=O)CC[C@H](NC(=O)CCCCCCCCCCCCCCCCC(=O)O)C(=O)O)C(=O)N[C@@H](CC(N)=O)C(=O)N[C@@H]([C@@H](C)O)C(=O)N[C@@H](C)C(=O)N[C@@H]([C@@H](C)O)C(=O)N1)[C@@H](C)O)C(=O)N[C@@H](CC(C)C)C(=O)N1CCC[C@H]1C(=O)N1CCC[C@H]1C(=O)N[C@H](C(=O)N[C@@H](CCC(=O)O)C(=O)N[C@H](C(=O)NCC(=O)N[C@@H](CO)C(=O)N[C@@H](CC(N)=O)C(=O)N[C@H](C(=O)N[C@@H](Cc1ccc(O)cc1)C(N)=O)[C@@H](C)O)C(C)C)[C@@H](C)O [Peptide 45, K(O2Oc-O2Oc-γE-C18diacid)[CNTATC]ATQRLANFLRHSS(Aib)NFGPILPPTEVGSNTY-amide] (H-K([AEEA-AEEA-γGlu-C18 diacid])CNTATCATQRLANFLRHSS[Aib]NFGPILPPTEVGSNTY-NH2; disulfide 2-7; N-terminus assumed) | 16900 pM | 29 | 588 pM
CC[C@H](C)[C@H](NC(=O)[C@@H]1CCCN1C(=O)CNC(=O)[C@H](Cc1ccccc1)NC(=O)[C@H](CC(N)=O)NC(=O)C(C)(C)NC(=O)[C@H](CO)NC(=O)[C@H](CO)NC(=O)[C@H](Cc1c[nH]cn1)NC(=O)[C@@H](NC(=O)[C@H](CC(C)C)NC(=O)[C@H](Cc1ccccc1)NC(=O)[C@H](Cc1c[nH]cn1)NC(=O)[C@H](C)NC(=O)[C@H](CC(C)C)NC(=O)[C@H](CCCNC(=N)N)NC(=O)[C@H](CCC(N)=O)NC(=O)[C@@H](NC(=O)[C@H](C)NC(=O)[C@@H]1CSSC[C@H](NC(=O)[C@H](CCCCN)NC(=O)[C@@H](N)CCCCNC(=O)CC[C@H](NC(=O)CCCCCCCCCCCCCCCCC(=O)O)C(=O)O)C(=O)N[C@@H](CC(N)=O)C(=O)N[C@@H]([C@@H](C)O)C(=O)N[C@@H](C)C(=O)N[C@@H]([C@@H](C)O)C(=O)N1)[C@@H](C)O)C(C)C)C(=O)N[C@@H](CC(C)C)C(=O)N1CCC[C@H]1C(=O)N1CCC[C@H]1C(=O)N[C@H](C(=O)N[C@@H](CC(N)=O)C(=O)N[C@H](C(=O)NCC(=O)N[C@@H](CO)C(=O)N[C@@H](CC(N)=O)C(=O)N[C@H](C(=O)N[C@@H](Cc1ccc(O)cc1)C(N)=O)[C@@H](C)O)C(C)C)[C@@H](C)O [Peptide 46, K(γE-C18diacid)K[CNTATC]ATQRLAHFLVHSS(Aib)NFGPILPPTNVGSNTY-amide] (H-K([γGlu-C18 diacid])KCNTATCATQRLAHFLVHSS[Aib]NFGPILPPTNVGSNTY-NH2; disulfide 3-8) | 362 pM | 3 | 109 pM
CC[C@H](C)[C@H](NC(=O)[C@@H]1CCCN1C(=O)CNC(=O)[C@H](Cc1ccccc1)NC(=O)[C@H](CC(N)=O)NC(=O)C(C)(C)NC(=O)[C@H](CO)NC(=O)[C@H](CO)NC(=O)[C@H](Cc1c[nH]cn1)NC(=O)[C@@H](NC(=O)[C@H](CC(C)C)NC(=O)[C@H](Cc1ccccc1)NC(=O)[C@H](Cc1c[nH]cn1)NC(=O)[C@H](C)NC(=O)[C@H](CC(C)C)NC(=O)[C@H](CCCNC(=N)N)NC(=O)[C@H](CCC(N)=O)NC(=O)[C@@H](NC(=O)[C@H](C)NC(=O)[C@@H]1CSSC[C@H](NC(=O)[C@H](CCCCN)NC(=O)[C@@H](N)CCCCNC(=O)CC[C@H](NC(=O)CCCCCCCCCCCCCCCCC(=O)O)C(=O)O)C(=O)N[C@@H](CC(N)=O)C(=O)N[C@@H]([C@@H](C)O)C(=O)N[C@@H](C)C(=O)N[C@@H]([C@@H](C)O)C(=O)N1)[C@@H](C)O)C(C)C)C(=O)N[C@@H](CC(C)C)C(=O)N1CCC[C@H]1C(=O)N1CCC[C@H]1C(=O)N[C@H](C(=O)N[C@@H](CC(N)=O)C(=O)N[C@H](C(=O)NCC(=O)N[C@@H](CO)C(=O)N[C@@H](CCC(=O)O)C(=O)N[C@H](C(=O)N[C@@H](Cc1ccc(O)cc1)C(N)=O)[C@@H](C)O)C(C)C)[C@@H](C)O [Peptide 47, K(γE-C18diacid)K[CNTATC]ATQRLAHFLVHSS(Aib)NFGPILPPTNVGSETY-amide] (H-K([γGlu-C18 diacid])KCNTATCATQRLAHFLVHSS[Aib]NFGPILPPTNVGSETY-NH2; disulfide 3-8; N-terminus assumed) | 468 pM | 2 | 218 pM
